Data from ChEMBL document CHEMBL1144698, “New approach to measure protein binding based on a parallel artificial membrane assay and human serum albumin” (J Med Chem, 2008).

What was measured:
Format in all cases: ADME
Albumin [1] = target: T1, Albumin (Homo sapiens, UniProt P02768); test: Binding affinity to human serum albumin by PAMPA method
Albumin [2] = target: T1, Albumin; test: Binding affinity to 100 uM human serum albumin at 10 uM by PAMPA method
Albumin [3] = target: T1, Albumin; test: Binding affinity to 300 uM human serum albumin at 10 uM by PAMPA method
Albumin [4] = target: T1, Albumin; test: Binding affinity to 600 uM human serum albumin at 10 uM by PAMPA method
Albumin [5] = target: T1, Albumin; test: Binding affinity to 50 uM human serum albumin at 10 uM by PAMPA method
Albumin [6] = target: T1, Albumin; test: Binding affinity to 100 uM human serum albumin at 50 uM by PAMPA method

T1 sequence (P02768 whole entry): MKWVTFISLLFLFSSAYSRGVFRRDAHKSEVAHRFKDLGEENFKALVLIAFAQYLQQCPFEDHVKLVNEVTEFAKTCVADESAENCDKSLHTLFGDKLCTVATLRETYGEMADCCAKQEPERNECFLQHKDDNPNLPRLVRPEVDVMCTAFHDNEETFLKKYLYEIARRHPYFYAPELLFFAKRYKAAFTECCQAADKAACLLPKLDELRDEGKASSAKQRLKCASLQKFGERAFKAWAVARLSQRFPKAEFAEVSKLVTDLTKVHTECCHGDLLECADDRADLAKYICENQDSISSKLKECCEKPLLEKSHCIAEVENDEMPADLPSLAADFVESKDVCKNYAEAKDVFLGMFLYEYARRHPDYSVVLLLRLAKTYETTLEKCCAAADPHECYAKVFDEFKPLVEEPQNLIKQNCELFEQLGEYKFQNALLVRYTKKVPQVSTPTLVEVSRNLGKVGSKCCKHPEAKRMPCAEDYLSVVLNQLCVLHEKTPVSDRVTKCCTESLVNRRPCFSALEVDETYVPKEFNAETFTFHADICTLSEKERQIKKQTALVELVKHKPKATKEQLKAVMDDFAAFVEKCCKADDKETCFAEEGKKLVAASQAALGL

Kd (Albumin [1]) [µM] | Kd (Albumin [2]) [µM] | Kd (Albumin [3]) [µM] | Kd (Albumin [4]) [µM] | Kd (Albumin [5]) [µM] | Kd (Albumin [6]) [µM] | SMILES
851 |  |  |  |  |  | CNCCCN1c2ccccc2CCc2ccccc21 [DESIPRAMINE]
437 | 661 | 603 | 631 | 355 | 437 | CC(C)NCC(O)COc1cccc2ccccc12 (configuration not stated) [PROPRANOLOL]
